Data taken from US11576915B2, “Method for treating pulmonary arterial hypertension and associated pulmonary arterial hypertension and daily dosing” (Altavant Sciences GmbH, priority 2019, dated 2023).

Legend:
[1] = system: PAH; experiment: monocrotaline prevention model of PAH; type: in vivo; conditions: rat, oral 100 mg/kg/day
[2] = system: PAH; experiment: SUGEN-hypoxia treatment model for established PAH; type: in vivo; conditions: rat, oral 100 mg/kg/day
[3] = system: serotonin biosynthesis; experiment: rat serotonin biomarkers (serum serotonin, urinary 5-HIAA); type: in vivo; conditions: 30 to 300 mg/kg/day, dose-dependent
Method: RVT-1201 (30 to 300 mg/kg/day) may yield a dose-dependent reduction in rat serum serotonin (−27% to −96%) and 24 h urinary output of 5-HIAA (−45% to −56%). HIAA is a metabolite that reflects total serotonin biosynthesis.

[4] = system: serotonin biomarkers; experiment: divided dose pharmacodynamic studies in rats (QD vs BID vs TID); type: in vivo, rat
Method: (§1) TPH1 is the rate-limiting enzyme for peripheral biosynthesis of serotonin (5HT), which has been implicated as a causative factor in PAH. RVT-1201 decreased pulmonary vessel wall thickness in 2 PAH rodent models indicating potential to halt/reverse pulmonary remodeling in humans. The median effective dose (100 mg/kg QD) in PAH rat models yielded a ˜35% reduction in 5-HT biosynthesis (based on urinary 5-HIAA, a metabolite of 5HT). […] The example compares reductions in 5-HIAA levels following QD and BID dosing in healthy subjects.

[5] = Example 2 healthy human subjects: safety and tolerability; type: in vivo; conditions: doses required to achieve clinically-relevant AUC
Method: (§2) Healthy human subjects (n=˜120) may receive RVT-1201.
(§3) Mean change in plasma 5-HIAA may be about −53% from Day 1 to Day 14, whereas placebo may be about +26%. Interpolation of KAR5417 AUC between 400 mg and 800 mg BID regimens may show 500-600 mg BID in humans will achieve the target exposure associated with efficacy in rat models.

[6] = Example 2 healthy human subjects: pharmacokinetics; type: in vivo
Method: as §2, §3

[7] = system: serotonin biosynthesis; experiment: Example 2 healthy human subjects: plasma 5-HIAA; type: in vivo; conditions: 400 mg BID, Day 1 to Day 14
Method: as §3

[8] = system: PAH; experiment: PAH rodent models (Example 3 background); type: in vivo, rat
Method: as §1

[9] = system: serotonin biosynthesis; experiment: Example 3 healthy subjects QD vs BID: plasma and urine 5-HIAA; type: in vivo, human; conditions: day 14, change from baseline
Method: (§4) 24 healthy subjects received 800 mg total daily oral doses of RVT-1201 or placebo (PBO), either as single (800 mg QD) or divided (400 mg BID) doses for 14 days across two cohorts (9 active: 3 PBO per cohort). KAR5417 plasma levels and change from Baseline (BSL) PD biomarker data (plasma and urine 5-HIAA) were compared between QD and BID cohorts at day 14. Safety and tolerability were assessed via adverse event (AE) monitoring and laboratory, vital signs and ECG assessments.

[10] = Example 3 healthy subjects QD vs BID: safety and tolerability; type: in vivo, human
Method: as §4

[11] = polymorph stability and shelf life; type: physicochemical; conditions: particularly at temperatures of less than 95° C.
Source text: The above-referenced compound can be used to prevent or treat PAH/APAH in either an amorphous or crystalline form. Two different polymorph crystalline forms are identified by x-ray powder diffraction patterns set forth in FIG. 1 (Form 3) and FIG. 2 (Form 1) as well as Tables 1 and 2 (Form 3) and Tables 3 and 4 (Form 1).

[12] = Example 3 healthy subjects QD vs BID: KAR5417 plasma levels; type: in vivo, human
Method: as §4

CCOC(=O)[C@@H]1CC2(CCN(c3cc(O[C@H](c4ccc(Cl)cc4-c4ccccc4)C(F)(F)F)nc(N)n3)CC2)CN1 [RVT-1201, (S)-ethyl 8-(2-amino-6-((R)-1-(5-chloro-[1,1′-biphenyl]-2-yl)-2,2,2-trifluoroethoxy)pyrimidin-4-yl)-2,8-diazaspiro[4.5]decane-3-carboxylate]
block or ameliorate PAH [1]: may block or ameliorate PAH | block or ameliorate PAH [2]: may block or ameliorate PAH | reduction in 24 h urinary output of 5-HIAA [3]: −45% to −56% | reduction in rat serum serotonin [3]: −27% to −96% | QD dosing versus more frequent dosing, lowering of 5-HT ([4]; healthy rats, QD vs BID vs TID): as effective as more frequent dosing | once daily administration versus BID or TID regimens ([4]; rats, 75 mg/kg/day): comparable to BID or TID regimens | serotonin reduction ([4]; rats, 75 mg/kg/day, divided dose studies): ~65% | tolerability [5]: well tolerated | human dose achieving target exposure associated with efficacy in rat models ([6]; BID, interpolation of KAR5417 AUC between 400 mg and 800 mg BID regimens): 500 to 600 mg | AUC following single doses versus dose ([6]; healthy human subjects, standard meals, single doses 200 to −1200 mg): proportional to dose | mean change in plasma 5-HIAA [7]: about −53% | pulmonary vessel wall thickness ([8]; 2 PAH rodent models): decreased | median effective dose ([8]; PAH rat models, QD): 100 mg/kg | reduction in 5-HT biosynthesis (based on urinary 5-HIAA) ([8]; PAH rat models, at median effective dose 100 mg/kg QD): ~35% | mean (±SD) reduction in plasma 5-HIAA ([9]; 400 mg BID): 49.9 (9.52) % | mean (±SD) reduction in urinary 5-HIAA ([9]; 400 mg BID): 55.5 (10.3) % | mean (±SD) reduction in plasma 5-HIAA ([9]; 800 mg QD): 40.0 (6.32) % | mean (±SD) reduction in urinary 5-HIAA ([9]; 800 mg QD): 45.8 (6.59) % | overall incidence of GI-related AEs ([10]; QD group (800 mg QD), 14 days): 78% | tolerability ([10]; both dose regimens (800 mg QD, 400 mg BID), 14 days): generally well-tolerated | overall incidence of GI-related AEs ([10]; divided dose group (400 mg BID), 14 days): 33% | treatment-related withdrawals ([10]; either cohort): no treatment-related withdrawals

CCOC(=O)[C@@H]1CC2(CCN(c3cc(O[C@H](c4ccc(Cl)cc4-c4ccccc4)C(F)(F)F)nc(N)n3)CC2)CN1 [crystalline Form 3, (S)-ethyl 8-(2-amino-6-((R)-1-(5-chloro-[1,1′-biphenyl]-2-yl)-2,2,2-trifluoroethoxy)pyrimidin-4-yl)-2,8-diazaspiro[4.5]decane-3-carboxylate]
stability and shelf life compared to crystalline Form 1 [11]: substantially greater stability and shelf life

Nc1nc(O[C@H](c2ccc(Cl)cc2-c2ccccc2)C(F)(F)F)cc(N2CCC3(CC2)CN[C@H](C(=O)O)C3)n1 [KAR5417, (S)-8-(2-amino-6-((R)-1-(5-chloro-[1,1′-biphenyl]-2-yl)-2,2,2-trifluoroeth-oxy)pyrimidin-4-yl)-2,8-diazaspiro[4.5]decane-3-carboxylic acid]
KAR5417 mean pAUC0-24 ([12]; RVT-1201 400 mg BID oral, day 14): 10400 ng*h/mL | AUC(0-t) ([12]; human, plasma, RVT-1201 800 mg QD oral, day 14, read-out: KAR5417 mean AUC0-24): 9180 ng·h/mL
